Measured values as given in patent US8742106B2 (Novartis AG, priority 2009, dated 2014).

Tests used:
human orexin 2 receptors [1] = biological target: T1, human orexin 2 receptors (Homo sapiens (Human), UniProt O43614); test: Calcium Accumulation in Cells (FLIPR), antagonism of orexin A; assay type: cell-based; settings: antagonism of orexin A, Cheng-Prusoff corrected; read-out: FLIPR hOx2R Ki
How it was run: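 Cells expressing human orexin 2 receptor, loaded with Fluo4-AM (2 μM) plus probenecid (0.1 mM) for 1 h, then washed. Antagonism read as inhibition of the orexin A calcium fluorescence signal (FLIPR).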

human orexin 1 receptors [2] = biological target: T2, human orexin 1 receptors (Homo sapiens (Human), UniProt O43613); test: as above; assay type: cell-based; settings: antagonism of orexin A, Cheng-Prusoff corrected; read-out: FLIPR hOx1R Ki
human orexin 1 receptors [3] = biological target: T2, human orexin 1 receptors; test: Radioligand Binding Assay I ([125I]orexin A competition, cell membranes); settings: read-out: binding I hOx1R Kd
Procedure: (§1) Radioligand Binding Assay I
(§2) For crude cell membrane preparations, cells (CHO, Chinese hamster ovary or HEK, human embryonic kidney) expressing human orexin 1 or human orexin 2 receptors, were washed with HEPES (10 mM, pH 7.5), scraped off the culture plates with the same buffer, and centrifuged at 4° C. for 5 min at 2500×g. The cell pellet was either stored at −80° C. or used directly. Before the experiments, cell membranes were re-suspended in binding assay buffer (10 mM HEPES, 0.5% (w/v) bovine serum albumin, pH 7.5) by homogenisation with a Polytron homogeniser at 50 Hz for 20 s. Cell membranes were also used as made available by commercial providers.
(§3) In initial saturation experiments (to calculate Bmax), cell homogenates (150 μl) were incubated with 25-300 pM of the radioligand ([^125I]orexin A, 50 μl), 8 concentrations in triplicates in the presence or absence Orexin A (1 μM, 50 μl) to define non specific binding. Bound radioactivity was measured, and data were analysed with the program XLFIT or Graphpad Prism. Protein concentration was determined according to the Bradford/BioRad Protein Assay Kit.
(§4) In competition experiments, cell homogenates (150 μl) were incubated in assay buffer (10 mM HEPES, pH 7.5, 0.5% (w/v) bovine serum albumin, 5 mM MgCl2, 1 mM CaCl2, and tween 0.05%) for 1 h at room temperature with about 100 pM of the radioligand ([^125I]orexin A, 2100 Ci/mmole, 50 μl), and with various concentrations of compounds of the invention (50 μl) in triplicates; non-specific binding was determined in the presence of Orexin A (1 μM). Reactions were terminated by vacuum filtration, 3 washes of ice cold wash buffer (Tris-HCl pH 7.4/10 mM, with NaCl 154 mM).

human orexin 2 receptors [4] = biological target: T1, human orexin 2 receptors; test: as above; settings: read-out: binding I hOx2R Kd
Procedure: as §1, §2, §3, §4

human orexin 2 receptors [5] = biological target: T1, human orexin 2 receptors; test: Radioligand Binding Assay II ([3H]-SB649868 competition, cell membranes); settings: read-out: binding II hOx2R Kd
How it was run: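 Competition binding used membranes from CHO or HEK cells expressing human orexin 2 receptor, incubated 1 h at room temperature with ~1 nM [3H]-SB649868 in 10 mM HEPES pH 7.5, 0.5% BSA, 5 mM MgCl2, 1 mM CaCl2, 0.05% tween. Nonspecific binding was defined with 10 μM almorexant, and bound activity was measured after filtration.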

human orexin 1 receptors [6] = biological target: T2, human orexin 1 receptors; test: as above; settings: read-out: binding II hOx1R Kd
How it was run: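 Membranes from CHO or HEK cells expressing human orexin 1 or orexin 2 receptors incubated 1 h at room temperature with about 1 nM [3H]-SB649868 and compound (triplicates) in HEPES pH 7.5 buffer with BSA, MgCl2, CaCl2, tween. Nonspecific binding defined with 10 μM almorexant; filtration read-out, Kd reported.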

T2 sequence (O43613 whole entry): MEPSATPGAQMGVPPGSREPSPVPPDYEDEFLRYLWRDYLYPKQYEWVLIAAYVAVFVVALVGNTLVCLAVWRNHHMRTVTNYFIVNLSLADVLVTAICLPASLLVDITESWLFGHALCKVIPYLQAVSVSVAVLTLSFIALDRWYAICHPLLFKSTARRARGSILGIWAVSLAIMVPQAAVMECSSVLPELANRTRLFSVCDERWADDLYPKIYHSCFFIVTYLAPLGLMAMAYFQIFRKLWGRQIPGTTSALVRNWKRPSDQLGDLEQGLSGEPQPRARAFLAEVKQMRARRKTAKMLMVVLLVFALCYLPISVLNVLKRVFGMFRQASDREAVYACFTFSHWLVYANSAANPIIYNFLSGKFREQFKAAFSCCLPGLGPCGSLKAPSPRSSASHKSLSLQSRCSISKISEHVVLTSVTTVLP
T1 sequence (O43614 whole entry): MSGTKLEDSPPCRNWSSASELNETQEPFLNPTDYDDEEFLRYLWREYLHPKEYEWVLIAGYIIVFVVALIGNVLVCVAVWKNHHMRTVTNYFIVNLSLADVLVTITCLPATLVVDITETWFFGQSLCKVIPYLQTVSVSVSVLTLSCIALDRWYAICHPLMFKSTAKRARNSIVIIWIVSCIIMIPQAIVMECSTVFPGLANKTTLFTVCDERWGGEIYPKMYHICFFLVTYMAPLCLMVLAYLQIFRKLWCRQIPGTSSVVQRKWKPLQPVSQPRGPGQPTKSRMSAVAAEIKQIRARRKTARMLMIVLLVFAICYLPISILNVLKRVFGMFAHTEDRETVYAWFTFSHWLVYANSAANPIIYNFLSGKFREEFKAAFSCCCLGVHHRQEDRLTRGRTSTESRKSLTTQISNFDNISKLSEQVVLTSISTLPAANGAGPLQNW

SMILES	Ki (human orexin 2 receptors [1]) [nM]	Ki (human orexin 1 receptors [2]) [nM]	Kd (human orexin 1 receptors [3]) [nM]	Kd (human orexin 2 receptors [4]) [nM]	Kd (human orexin 2 receptors [5]) [nM]	Kd (human orexin 1 receptors [6]) [nM]
CC(Oc1cc(C(F)(F)F)c2c(-c3ccccc3)nn(C)c2n1)C(=O)N[C@@H](C)c1ccccc1 (single isomer, unassigned) [Example 1.73]	91	226	225	162		
C[C@H](NC(=O)COc1cc(C(F)(F)F)c2c(-c3ccccc3F)nn(C)c2n1)c1ccccc1 [Example 1.1, (S)-2-(3-(2-fluorophenyl)-1-methyl-4-(trifluoromethyl)-1H-pyrazolo[3,4-b]pyridin-6-yloxy)-N-(1-phenylethyl)acetamide]	30	156	185	79		
Cc1cc(OCC(=O)N[C@@H](C)c2ccccc2)nc2c1c(-c1ccccc1)nn2C [Example 1.13, (S)-2-(1,4-dimethyl-3-phenyl-1H-pyrazolo[3,4-b]pyridin-6-yloxy)-N-(1-phenylethyl)acetamide]	233	181	45	143		
Cc1cc(OCC(=O)NC(C)CCc2ccccc2)nc2c1c(-c1ccccc1)nn2C (stereo not drawn) [Example 1.16, 2-(1,4-dimethyl-3-phenyl-1H-pyrazolo[3,4-b]pyridin 6-yloxy)-N-(4-phenylbutan-2-yl)acetamide]	49	456	116	28		
C[C@H](NC(=O)COc1cc(C(F)(F)F)c2c(-c3ccccc3)nn(C)c2n1)c1ccccc1 [Example 1.17, (S)-2-(1-methyl-3-phenyl-4-(trifluoromethyl)-1H-pyrazolo[3,4-b]pyridin-6-yloxy)-N-(1-phenylethyl)acetamide]	108	175	64	121		
CC(NC(=O)COc1cc(C(F)(F)F)c2c(-c3ccccc3)nn(C)c2n1)c1ccccc1 (stereo not drawn) [Example 1.18, 2-(1-methyl-3-phenyl-4-(trifluoromethyl)-1H-pyrazolo[3,4-b]pyridin-6-yloxy)-N-(1-phenylethyl)acetamide]	26	48	36	63		
COc1cccc(-c2nn(C)c3nc(OCC(=O)N[C@@H](C)c4ccccc4)cc(C(F)(F)F)c23)c1 [Example 1.19, (S)-2-(3-(3-methoxyphenyl)-1-methyl-4-(trifluoromethyl)-1H-pyrazolo[3,4-b]pyridin-6-yloxy)-N-(1-phenylethyl)acetamide]	187	108	101	855		
COc1ccc(-c2nn(C)c3nc(OCC(=O)N[C@@H](C)c4ccccc4)cc(C(F)(F)F)c23)cc1 [Example 1.20]	76	378	299	187		
C[C@H](NC(=O)COc1cc(C(F)(F)F)c2c(-c3cccc(F)c3)nn(C)c2n1)c1ccccc1 [Example 1.22, (S)-2-(3-(3-fluorophenyl)-1-methyl-4-(trifluoromethyl)-1H-pyrazolo[3,4-b]pyridin-6-yloxy)-N-(1-phenylethyl)acetamide]	50	107	88	94		
C[C@H](NC(=O)COc1cc(C(F)(F)F)c2c(-c3ccc(F)cc3)nn(C)c2n1)c1ccccc1 [Example 1.23, (S)-2-(3-(4-fluorophenyl)-1-methyl-4-(trifluoromethyl)-1H-pyrazolo[3,4-b]pyridin-6-yloxy)-N-(1-phenylethyl)acetamide]	136	128	131	278		
Cc1cccc(-c2nn(C)c3nc(OCC(=O)N[C@@H](C)c4ccccc4)cc(C(F)(F)F)c23)c1 [Example 1.24, (S)-2-(1-methyl-3-m-tolyl-4-(trifluoromethyl)-1H-pyrazolo[3,4-b]pyridin-6-yloxy)-N-(1-phenylethyl)acetamide]	87	54	48	153		
Cc1ccc(CNC(=O)COc2cc(C(F)(F)F)c3c(-c4ccccc4)nn(C)c3n2)cc1 [Example 1.32, 2-(1-methyl-3-phenyl-4-(trifluoromethyl)-1H-pyrazolo[3,4-b]pyridin-6-yloxy)-N-(4-methylbenzyl)acetamide]	115	851	2600	1380		
CCn1nccc1C(C)NC(=O)COc1cc(C(F)(F)F)c2c(-c3ccccc3)nn(C)c2n1 (stereo not drawn) [Example 1.39, N-(1-(1-ethyl-1H-pyrazol-5-yl)ethyl)-2-(1-methyl-3-phenyl-4-(trifluoromethyl)-1H-pyrazolo[3,4-b]pyridin-6-yloxy)acetamide]	353	222	330	1130		
COc1ccc(CNC(=O)COc2cc(C(F)(F)F)c3c(-c4ccccc4)nn(C)c3n2)cc1 [Example 1.41, N-(4-methoxybenzyl)-2-(1-methyl-3-phenyl-4-(trifluoromethyl)-1H-pyrazolo[3,4-b]pyridin-6-yloxy)acetamide]	83	800	1240	410		
COc1ccc(C(C)NC(=O)COc2cc(C(F)(F)F)c3c(-c4ccccc4)nn(C)c3n2)cc1 (stereo not drawn) [Example 1.45, N-(1-(4-methoxyphenyl)ethyl)-2-(1-methyl-3-phenyl-4-(trifluoromethyl)-1H-pyrazolo[3,4-b]pyridin-6-yloxy)acetamide]	2	29	32	7		
Cc1ccc2c(n1)CC[C@@H]2NC(=O)COc1cc(C)c2c(C3CC3)nn(C)c2n1 [Example 6.63, (S)-2-(3-cyclopropyl-1H-dimethyl-1H-pyrazolo[3,4-b]pyridin-6-yloxy)-N-(2-methyl-6,7-dihydro-5H-cyclopenta[b]pyridin-5-yl)acetamide]	22	109			42	54
CCOc1ccc2c(c1)CC[C@@H]2NC(=O)COc1cc(C)c2c(C3CC3)nn(C)c2n1 [Example 6.68, (S)-2-(3-cyclopropyl-1,4-dimethyl-1H-pyrazolo[3,4-b]pyridin-6-yloxy)-N-(5-ethoxy-2,3-dihydro-1H-inden-1-yl)acetamide]	151	71			317	52
Cc1ccc2c(n1)CC[C@@H]2NC(=O)COc1cc(C(F)(F)F)c2c(-c3cc(C)oc3C)nn(C)c2n1 [Example 6.79, (S)-2-(3-(2,5-dimethylfuran-3-yl)-1-methyl-4-(trifluoromethyl)-1H-pyrazolo[3,4-b]pyridin-6-yloxy)-N-(2-methyl-6,7-dihydro-5H-cyclopenta[b]pyridin-5-yl)acetamide]	7	23			90	34
COc1ccc([C@H](C)NC(=O)COc2cc(C(F)(F)F)c3c(-c4cc(C)oc4C)nn(C)c3n2)cc1 [Example 6.80, (S)-2-(3-(2,5-dimethylfuran-3-yl)-1-methyl-4-(trifluoromethyl)-1H-pyrazolo[3,4-b]pyridin-6-yloxy)-N-(1-(4-methoxyphenyl)ethyl)acetamide]	7	6			32	12
COc1cc2c(cc1OC)C(NC(=O)COc1cc(C)c3c(C4CC4)nn(C)c3n1)CC2 (stereo not drawn) [Example 7.1, 2-(3-cyclopropyl-1,4-dimethyl-1H-pyrazolo[3,4-b]pyridin-6-yloxy)-N-(5,6-dimethoxy-2,3-dihydro-1H-inden-1-yl)acetamide]	52	140			65	55
Cc1ccc([C@H](C)NC(=O)COc2cc(C)c3c(C4CC4)nn(C)c3n2)cc1 [Example 7.11, (S)-2-(3-cyclopropyl-1,4-dimethyl-1H-pyrazolo[3,4-b]pyridin-6-yloxy)-N-(1-p-tolylethyl)acetamide]	24	50			17	18
